Reference: patent EP0170019A1, “Carbapenems having an ether group at position 4” (F. HOFFMANN-LA ROCHE & CO. Aktiengesellschaft, priority 1984, dated 1986)
In brackets after ≈: the same amount, converted by molar mass.

Legend:
Test in all cases: Minimal inhibitory concentration (MHK) on DST agar
Assay type in all cases: cell-based
[1] = system: Acinetobacter anitr. 5I-156; conditions: ANITR.5I156
From the text: (§1) Die minimalen Hemmkonzentrationen (MHK) der (4S,5S,6S)--6-[(R)-1-Hydroxyäthyl]-4-methoxy-7-oxo -1-azabicyclo-[3.2.0]hept-2-en-2-carbonsäure (Verbindung A), der (4R,5S,-6S)-6-[(R)-1-Hydroxyäthyl]-3-[[(S)-1-(1-iminoäthyl) -3-pyrrolidinyl]thio]-4-methoxy-7-oxo -1-azabicyclo[3.2.0]-hept-2-en -2-carbonsäure (Verbindung B), der (4R.5S,6S)-4--Aethoxy-6-[(R)-1-hydroxyäthyl]-3-[(S) -3-pyrrolidinyl- thio]-7-oxo-1-azabicyclo[3.2.0]hept-2-en -2-carbonsäure (Verbindung C) und der (4R,5S,6S)-4-Aethoxy-6-[(R)-1--hydroxyäthyl]-3-[[(S)-1 -(1-iminoäthyl)-3-pyrrolidinyl]-thio]-7-oxo-1 -azabicyclo[3.2.0]hept-2-en-2-carbonsäure (Verbindung D) gegen eine Reihe pathogener Mikroorganismen wurden auf DST-Agar (Diagnostic Sensitivity Test Agar) bestimmt. Die erhaltenen Resultate sind in der nachfolgenden Tabelle aufgeführt:
(§2) Die ß-Lactamase produzierenden Organismen sind mit einem ^* bezeichnet.

E. coli 1346 = conditions: Escherichia coli
From the text: as §1, §2

E. coli 1527 E* = conditions: Escherichia coli, E. coli 1527 E* (ß-Lactamase producing)
From the text: as §1, §2

E. coli 25922 = conditions: Escherichia coli
From the text: as §1, §2

E. coli TEM 1* = conditions: Escherichia coli, read-out: MHK
From the text: as §1, §2

[2] = system: Enterobacter cloacae 15M*; conditions: Enterobacter cloacae 15M* (ß-Lactamase producing)
From the text: as §1, §2

[3] = system: Enterobacter cloacae 908*; conditions: Enterobacter cloacae 908* (ß-Lactamase producing)
From the text: as §1, §2

Klebs. aerogenes 1082E* = conditions: Klebsiella aerogenes, Klebs. aerogenes 1082E* (ß-Lactamase producing)
From the text: as §1, §2

Klebs. pneumoniae 418* = conditions: Klebsiella pneumoniae, Klebs. pneumoniae 418* (ß-Lactamase producing)
From the text: as §1, §2

Prot. mirabilis 2117* = conditions: Proteus mirabilis, Prot. mirabilis 2117* (ß-Lactamase producing)
From the text: as §1, §2

Prot. mirabilis 29H = conditions: Proteus mirabilis
From the text: as §1, §2

Prot. vulgaris 1028* = conditions: Proteus vulgaris, Prot. vulgaris 1028* (ß-Lactamase producing)
From the text: as §1, §2

Pseudomonas aer. 1559E* = Pseudomonas aer. 1559E* (ß-Lactamase producing)
From the text: as §1, §2

Pseudomonas aer. BA* = Pseudomonas aer. BA* (ß-Lactamase producing)
From the text: as §1, §2

Salmonella typh. BA = system: Salmonella typh. BA
From the text: as §1, §2

[4] = system: Serratia marcescens 69438
From the text: as §1, §2

[5] = system: Serratia marcescens 803/15*; conditions: Serratia marcescens 803/15* (ß-Lactamase producing)
From the text: as §1, §2

Staph. aureus 6538 = conditions: Staphylococcus aureus
From the text: as §1, §2

Staph. aureus 887* = conditions: Staphylococcus aureus, Staph. aureus 887* (ß-Lactamase producing)
From the text: as §1, §2

Strept. faecalis 6 = conditions: Enterococcus faecalis
From the text: as §1, §2

| SMILES | MIC [1] | MIC (E. coli 1346) | MIC (E. coli 1527 E*) | MIC (E. coli 25922) | MIC (E. coli TEM 1*) | MIC [2] | MIC [3] | MIC (Klebs. aerogenes 1082E*) | MIC (Klebs. pneumoniae 418*) | MIC (Prot. mirabilis 2117*) | MIC (Prot. mirabilis 29H) | MIC (Prot. vulgaris 1028*) | MIC (Pseudomonas aer. 1559E*) | MIC (Pseudomonas aer. BA*) | MIC (Salmonella typh. BA) | MIC [4] | MIC [5] | MIC (Staph. aureus 6538) | MIC (Staph. aureus 887*) | MIC (Strept. faecalis 6) |
| --- | --- | --- | --- | --- | --- | --- | --- | --- | --- | --- | --- | --- | --- | --- | --- | --- | --- | --- | --- | --- |
| CCO[C@H]1C(S[C@H]2CCNC2)=C(C(=O)O)N2C(=O)[C@H]([C@@H](C)O)[C@@H]12 [Verbindung C, (4R.5S,6S)-4--Aethoxy-6-[(R)-1-hydroxyäthyl]-3-[(S) -3-pyrrolidinyl-thio]-7-oxo-1-azabicyclo[3.2.0]hept-2-en-2-carbonsäure] | 1 µg/mL (≈ 2.92 µM) | 0.5 µg/mL (≈ 1.46 µM) | 0.25 µg/mL (≈ 0.73 µM) | 0.5 µg/mL (≈ 1.46 µM) | 0.5 µg/mL (≈ 1.46 µM) | 1 µg/mL (≈ 2.92 µM) | 1 µg/mL (≈ 2.92 µM) | 2 µg/mL (≈ 5.84 µM) | 2 µg/mL (≈ 5.84 µM) | 16 µg/mL (≈ 46.7 µM) | 32 µg/mL (≈ 93.5 µM) | 32 µg/mL (≈ 93.5 µM) | 64 µg/mL (≈ 187 µM) | 32 µg/mL (≈ 93.5 µM) | 0.5 µg/mL (≈ 1.46 µM) | 8 µg/mL (≈ 23.4 µM) | 4 µg/mL (≈ 11.7 µM) | 0.25 µg/mL (≈ 0.73 µM) | 0.5 µg/mL (≈ 1.46 µM) | 32 µg/mL (≈ 93.5 µM) |
| CO[C@H]1C(S[C@H]2CCN(C(C)=N)C2)=C(C(=O)O)N2C(=O)[C@H]([C@@H](C)O)[C@@H]12 [Verbindung B, (4R,5S,-6S)-6-[(R)-1-Hydroxyäthyl]-3-[[(S)-1-(1-iminoäthyl) -3-pyrrolidinyl]thio]-4-methoxy-7-oxo-1-azabicyclo[3.2.0]-hept-2-en-2-carbonsäure] | 0.4 µg/mL (≈ 1.08 µM) | 0.4 µg/mL (≈ 1.08 µM) | 0.4 µg/mL (≈ 1.08 µM) | 0.8 µg/mL (≈ 2.17 µM) |  | 0.8 µg/mL (≈ 2.17 µM) | 0.8 µg/mL (≈ 2.17 µM) | 0.8 µg/mL (≈ 2.17 µM) | 0.4 µg/mL (≈ 1.08 µM) | 12.5 µg/mL (≈ 33.8 µM) | 25 µg/mL (≈ 67.7 µM) | 12.5 µg/mL (≈ 33.8 µM) | 25 µg/mL (≈ 67.7 µM) | 25 µg/mL (≈ 67.7 µM) | 0.8 µg/mL (≈ 2.17 µM) | 3.1 µg/mL (≈ 8.39 µM) | 3.1 µg/mL (≈ 8.39 µM) | 0.1 µg/mL (≈ 0.271 µM) | 0.2 µg/mL (≈ 0.541 µM) | 12.5 µg/mL (≈ 33.8 µM) |
| CCO[C@H]1C(S[C@H]2CCN(C(C)=N)C2)=C(C(=O)O)N2C(=O)[C@H]([C@@H](C)O)[C@@H]12 [Verbindung D, (4R,5S,6S)-4-Aethoxy-6-[(R)-1--hydroxyäthyl]-3-[[(S)-1-(1-iminoäthyl)-3-pyrrolidinyl]-thio]-7-oxo-1-azabicyclo[3.2.0]hept-2-en-2-carbonsäure] | 2 µg/mL (≈ 5.22 µM) | 1 µg/mL (≈ 2.61 µM) | 1 µg/mL (≈ 2.61 µM) | 2 µg/mL (≈ 5.22 µM) | 0.5 µg/mL (≈ 1.3 µM) | 4 µg/mL (≈ 10.4 µM) | 4 µg/mL (≈ 10.4 µM) | 2 µg/mL (≈ 5.22 µM) | 2 µg/mL (≈ 5.22 µM) | 16 µg/mL (≈ 41.7 µM) | 32 µg/mL (≈ 83.4 µM) | 16 µg/mL (≈ 41.7 µM) | 64 µg/mL (≈ 167 µM) | 64 µg/mL (≈ 167 µM) | 2 µg/mL (≈ 5.22 µM) | 8 µg/mL (≈ 20.9 µM) | 8 µg/mL (≈ 20.9 µM) | 0.25 µg/mL (≈ 0.652 µM) | 0.5 µg/mL (≈ 1.3 µM) | 32 µg/mL (≈ 83.4 µM) |
| CO[C@H]1C=C(C(=O)O)N2C(=O)[C@H]([C@@H](C)O)[C@@H]12 [Verbindung A, (4S,5S,6S)--6-[(R)-1-Hydroxyäthyl]-4-methoxy-7-oxo-1-azabicyclo-[3.2.0]hept-2-en-2-carbonsäure] | 2 µg/mL (≈ 8.8 µM) | 0.5 µg/mL (≈ 2.2 µM) | 0.5 µg/mL (≈ 2.2 µM) | 1 µg/mL (≈ 4.4 µM) | 1 µg/mL (≈ 4.4 µM) | 1 µg/mL (≈ 4.4 µM) | 1 µg/mL (≈ 4.4 µM) | 1 µg/mL (≈ 4.4 µM) | 0.5 µg/mL (≈ 2.2 µM) | 4 µg/mL (≈ 17.6 µM) | 8 µg/mL (≈ 35.2 µM) | 4 µg/mL (≈ 17.6 µM) | > 32 µg/mL | 32 µg/mL (≈ 141 µM) | 1 µg/mL (≈ 4.4 µM) | 2 µg/mL (≈ 8.8 µM) | 2 µg/mL (≈ 8.8 µM) | 0.5 µg/mL (≈ 2.2 µM) | 1 µg/mL (≈ 4.4 µM) | 32 µg/mL (≈ 141 µM) |
